From patent publication US20250296960A1, “PEPTIDE COMPOSITIONS AND METHODS OF USE THEREOF” (priority 2022, published 2025)
Values joined by “and” are separate entries in the source; they are usually repeats but may differ in a detail not shown here. Identical values can stand only once. Numbered stars: 1 amine (or outer) side, 2 acyl side, 3 side chain; on linkers, the order of the positions; unused ones are H or OH. Square brackets hold non-standard residues; d marks the D form. Side chains are listed from the residue outwards. Peptide text beside a SMILES is read from it. * marks the point of attachment. Biotin = O=C1N[C@H]2[C@H](CS[C@H]2CCCCC(=O)*)N1; C18 diacid = O=C(O)CCCCCCCCCCCCCCCCC(=O)*; γGlu = O=C(O)[C@H](CCC(=O)[*:2])N[*:1]; AEEA = NCCOCCOCC(=O)O; Aib = CC(C)(N)C(=O)O

Tests used:
[1] = Intestinal absorption / PK after intraduodenal administration of oral formulation in rats, serum LC-MS/MS; conditions: rat, in vivo, 300 nmol/kg
Description: This study was conducted to evaluate the intestinal absorption of peptides following enteral administration of oral pharmaceutical formulations. The pharmaceutical formulation was administered in a form of suspensions by intraduodenal (ID) injection in rats. SEQ ID_87, 89 and 90 was accurately weighed and dissolved in 10 mM PBS containing polysorbate 80 (pH 7.4, vehicle I). The mixture was vortexed for 5 min to get a clear solution. Then, 2.5 mL of vehicle was added to the mixture and vortexed for 30 min to get homogenous opaque suspension. The composition of Vehicle II was sodium chenodeoxycholate, and propyl gallate in polysorbate 80 in PBS. The animals were not fasted prior to dosing. 0.2˜ 0.4 mL of whole blood was taken from vein at each time point (0, 0.167, 0.5, 1, 2, 4, 8, 24, and 48 hrs after IV or ID administration). The collected whole blood was incubated at room temperature for 20 min and tubes were centrifugated at 13,000 rpm for 10 min at 4° C. The resulting serum 0.1˜ 0.2 mL was transferred into the tube and stored at −70° C. until analysis. The concentrations of peptides in serum were determined by LC-MS/MS analysis. PK parameters were analyzed by non-compartmental analysis using Phoenix WinNonlin 5.0.1. software (Pharsight Corporation, Mountain View, CA, USA).

human GLP-1R = molecular target: T1, human GLP-1R (Homo sapiens, UniProt P43220); assay: cAMP assay (HitHunter cAMP) in GLP-1R-expressing CHO-K1 cells (GLP-1R+ cells); assay type: cell-based
T1 construct: host or cells: CHO-K1
T1 sequence (P43220 24-463): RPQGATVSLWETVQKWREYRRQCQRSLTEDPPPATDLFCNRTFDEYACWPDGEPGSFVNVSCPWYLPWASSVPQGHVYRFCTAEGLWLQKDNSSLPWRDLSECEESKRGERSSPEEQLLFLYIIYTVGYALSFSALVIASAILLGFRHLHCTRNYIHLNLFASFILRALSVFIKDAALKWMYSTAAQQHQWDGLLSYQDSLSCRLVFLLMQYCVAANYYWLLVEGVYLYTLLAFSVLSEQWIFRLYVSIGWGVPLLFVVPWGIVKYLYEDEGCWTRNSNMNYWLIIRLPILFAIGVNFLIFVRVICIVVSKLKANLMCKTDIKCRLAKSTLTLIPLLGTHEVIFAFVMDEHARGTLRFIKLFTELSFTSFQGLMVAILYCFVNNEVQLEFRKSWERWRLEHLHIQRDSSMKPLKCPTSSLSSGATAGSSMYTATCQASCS
Description: (§1) The cells were seeded in a 96-well plate at 7×10^3 cells/well using cell plate reagent and incubated the cells overnight at 37° C. and 5% CO2. To perform the cAMP detection assay, cell plating reagent were replaced with the cAMP Assay buffer. Each of the wells was then treated with the diluted peptide and incubated for 30 minutes under conditions of a temperature of 37° C. in a CO2 incubator.
(§2) After the incubation, cAMP Antibody reagent and Working cAMP detection solution to all wells. Incubate the plate for 1 hour at Room temperature in the dark. Then, cAMP Solution A was added and incubated for 3 hours at room temperature in the dark. Subsequently, the luminescence was measured using the microplate reader device.

human GCGR = molecular target: T2, human GCGR (Homo sapiens, UniProt P47871); assay: cAMP assay (HitHunter cAMP) in GCGR-expressing CHO-K1 cells (GCGR+ cells); assay type: cell-based
T2 construct: host or cells: CHO-K1
T2 sequence (P47871 26-477): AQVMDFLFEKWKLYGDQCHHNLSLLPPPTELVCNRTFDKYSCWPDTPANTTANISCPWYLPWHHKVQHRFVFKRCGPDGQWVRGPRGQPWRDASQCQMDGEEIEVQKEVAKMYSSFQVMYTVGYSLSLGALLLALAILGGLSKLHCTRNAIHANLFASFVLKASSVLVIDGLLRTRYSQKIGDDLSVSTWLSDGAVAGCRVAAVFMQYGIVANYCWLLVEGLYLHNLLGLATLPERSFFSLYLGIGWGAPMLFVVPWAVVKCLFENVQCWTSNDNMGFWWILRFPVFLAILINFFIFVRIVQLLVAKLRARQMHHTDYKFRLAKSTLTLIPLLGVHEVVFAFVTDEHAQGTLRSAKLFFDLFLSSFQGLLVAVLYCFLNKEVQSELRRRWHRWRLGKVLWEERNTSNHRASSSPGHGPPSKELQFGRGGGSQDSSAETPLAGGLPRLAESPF
Description: as §1, §2

human GIPR = molecular target: T3, human GIPR (Homo sapiens, UniProt P48546); assay: cAMP assay (HitHunter cAMP) in GIPR-expressing CHO-K1 cells (GIPR+ cells); assay type: cell-based
T3 construct: host or cells: CHO-K1
T3 sequence (P48546 22-466): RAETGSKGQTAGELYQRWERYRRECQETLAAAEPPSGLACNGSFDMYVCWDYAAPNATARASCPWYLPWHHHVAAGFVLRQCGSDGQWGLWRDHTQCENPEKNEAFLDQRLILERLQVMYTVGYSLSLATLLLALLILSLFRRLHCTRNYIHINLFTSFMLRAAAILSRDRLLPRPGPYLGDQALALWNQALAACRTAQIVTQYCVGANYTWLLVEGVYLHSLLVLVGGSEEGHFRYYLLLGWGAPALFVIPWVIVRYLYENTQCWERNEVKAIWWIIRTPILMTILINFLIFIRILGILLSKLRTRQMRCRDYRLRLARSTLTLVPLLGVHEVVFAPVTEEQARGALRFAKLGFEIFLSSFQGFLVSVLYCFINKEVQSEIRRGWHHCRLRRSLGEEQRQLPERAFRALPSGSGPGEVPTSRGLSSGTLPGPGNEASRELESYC
Description: as §1, §2

[2] = Body weight loss in normal C57BL/6 mice, subcutaneous dosing; assay type: in vivo; conditions: for Weight loss (%): normal mice, after 48 or 72 hours
Description: To confirm the therapeutic effect of the peptide in vivo, polypeptides were administered to mice to measure changes in body weight. […] The peptides were delivered at 0.02% polysorbate 80 (PS80) in PBS and dosing volume was 10 mL/kg. Body weight was monitored 6 h, QD.
To confirm the therapeutic effect of the peptide in obesity, diabetes, or NASH, polypeptides were administered to mice to measure changes in food intake, blood glucose and body weight. […] In addition, a NASH animal model was prepared by feeding a high fat, high fructose, high cholesterol diet to normal C57BL/6 mice (approximately 6 weeks old) for approximately 21 weeks, and increasing the body weights of the mice to approximately 50 g on average. Thereafter, polypeptides were administered by subcutaneous injection at dose of 20 nmol/kg once every other day for 2 weeks. Body weight and food intake were measured once every other day given points of time. After 2 weeks of treatment period, mice were sacrificed, then liver weight, hepatic triglyceride, and NASH related biomarkers were measured.
DD01 administered at 40 nmol/kg, s.c. Q2D as positive control was delivered at 0.02% PS80 in PBS and dosing volume was 10 mL/kg. Body weight was monitored QD for 4 days.
The peptides were delivered at 0.02% PS80 in PBS and dosing volume was 10 mL/kg. Food intake, blood glucose, and body weight changes were monitored QD.

[3] = Table 13, EC50 of STD peptide over EC50 of peptide
[4] = Table 14, normalised to activity at GLP-1R
[5] = Table 19, normalised to activity at GLP-1R
[6] = Table 24, ratio of EC50 of native ligand over peptide

CSCC[C@H](NC(=O)[C@H](CCCCNC(=O)CCCC[C@@H]1SC[C@@H]2NC(=O)N[C@@H]21)NC(=O)[C@H](Cc1ccc(O)cc1)NC(=O)[C@H](CC(=O)O)NC(=O)[C@H](CC(C)C)NC(=O)[C@H](CC(C)C)NC(=O)[C@H](CCCCNC(=O)COCCOCCNC(=O)COCCOCCNC(=O)CC[C@H](NC(=O)CCCCCCCCCCCCCCCCC(=O)O)C(=O)O)NC(=O)[C@H](CO)NC(=O)[C@H](Cc1ccc(O)cc1)NC(=O)[C@H](CC(=O)O)NC(=O)[C@H](CO)NC(=O)[C@@H](NC(=O)[C@H](Cc1ccccc1)NC(=O)[C@@H](NC(=O)CNC(=O)[C@H](CCC(N)=O)NC(=O)C(C)(C)NC(=O)[C@@H](N)Cc1ccc(O)cc1)[C@@H](C)O)[C@@H](C)O)C(=O)N[C@@H](CCC(N)=O)C(=O)N[C@@H](CCCNC(=N)N)C(=O)N[C@@H](CC(=O)O)C(=O)N[C@@H](Cc1ccccc1)C(=O)N[C@H](C(=O)N[C@@H](CCC(N)=O)C(=O)N[C@@H](Cc1c[nH]c2ccccc12)C(=O)N[C@@H](CC(C)C)C(=O)N[C@@H](CC(C)C)C(=O)N[C@@H](CCC(=O)O)C(=O)NCC(=O)NCC(=O)N1CCC[C@H]1C(=O)N[C@@H](CO)C(=O)N[C@@H](CO)C(=O)NCC(=O)N[C@@H](C)C(=O)N1CCC[C@H]1C(=O)N1CCC[C@H]1C(=O)N1CCC[C@H]1C(=O)N[C@@H](CO)C(N)=O)C(C)C [SEQ ID NO. 87, YAibQGT FTSDY SK*LLD YB*MQR DFVQW LLEGG PSSGA PPPS] (H-Y[Aib]QGTFTSDYSK([AEEA-AEEA-γGlu-C18 diacid])LLDYK(Biotin)MQRDFVQWLLEGGPSSGAPPPS-NH2; N-terminus and C-terminus assumed)
AUC(0-inf) [1]: 1860 ng·h/mL | Cmax [1]: 290 ± 110 ng/mL | MRT inf [1]: 8.19 ± 1.92 h | Tmax [1]: 0.25 ± 0.17 h | half-life [1]: 6.17 ± 1.36 h

CC[C@H](C)[C@H](NC(=O)[C@H](CC(C)C)NC(=O)[C@H](Cc1c[nH]c2ccccc12)NC(=O)[C@H](CCC(N)=O)NC(=O)[C@@H](NC(=O)[C@H](Cc1ccccc1)NC(=O)[C@H](CC(=O)O)NC(=O)[C@H](CCCNC(=N)N)NC(=O)[C@H](C)NC(=O)[C@H](CCSC)NC(=O)[C@H](CCSC)NC(=O)[C@H](Cc1ccc(O)cc1)NC(=O)[C@H](CC(=O)O)NC(=O)[C@H](CC(C)C)NC(=O)[C@H](Cc1ccc(O)cc1)NC(=O)[C@H](CCCCN)NC(=O)[C@H](CO)NC(=O)[C@H](Cc1ccc(O)cc1)NC(=O)[C@H](CC(=O)O)NC(=O)[C@H](CO)NC(=O)[C@@H](NC(=O)[C@H](Cc1ccccc1)NC(=O)[C@@H](NC(=O)CNC(=O)[C@H](CCC(N)=O)NC(=O)C(C)(C)NC(=O)[C@@H](N)Cc1c[nH]cn1)[C@@H](C)O)[C@@H](C)O)C(C)C)C(=O)N[C@@H](CCC(=O)O)C(=O)NCC(=O)NCC(=O)N1CCC[C@H]1C(=O)N[C@@H](CO)C(=O)N[C@@H](CO)C(=O)NCC(=O)N[C@@H](C)C(=O)N1CCC[C@H]1C(=O)N1CCC[C@H]1C(=O)N1CCC[C@H]1C(=O)N[C@@H](CO)C(=O)N[C@@H](CSC1CC(=O)N(CCNC(=O)COCCOCCNC(=O)COCCOCCNC(=O)CC[C@H](NC(=O)CCCCCCCCCCCCCCCCC(=O)O)C(=O)O)C1=O)C(N)=O (stereo partly shown) [5A]
Percentage change in EC50 relative to GLP-1 at human GLP-1R (%) (human GLP-1R; Table 9, lipidated (A type) peptides): 201% | Activity relative to STD peptide (%), GLP-1 (human GLP-1R; [3]): 84% | Activity relative to GLP-1 (%), GLP-1 (human GLP-1R; [4]): 100% | Activity relative to STD peptide (%), GLP-1R (human GLP-1R; Table 18): 520% | Activity relative to GLP-1 (%), GLP-1R (human GLP-1R; [5]): 100% | Relative % to native ligand, GLP-1R (human GLP-1R; [6]): 201% | Ratio vs. GLP-1R, GLP-1R (human GLP-1R; Table 25): 100 | Relative % to non-lipidated peptide, GLP-1R (human GLP-1R; Table 26): 33% | Percentage change in EC50 relative to GCG at human GCGR (%) (human GCGR; Table 10, lipidated (A type) peptides): 14% | Activity relative to STD peptide (%), Glucagon (human GCGR; [3]): 8% | Activity relative to GLP-1 (%), Glucagon (human GCGR; [4]): 10% | Activity relative to STD peptide (%), GCGR (human GCGR; Table 18): 8% | Activity relative to GLP-1 (%), GCGR (human GCGR; [5]): 2% | Relative % to native ligand, GCGR (human GCGR; [6]): 14% | Ratio vs. GLP-1R, GCGR (human GCGR; Table 25): 7 | Relative % to non-lipidated peptide, GCGR (human GCGR; Table 26): 2% | Percentage change in EC50 relative to GIP at human GIPR (%) (human GIPR; Table 11, lipidated (A type) peptides): 5% | Activity relative to STD peptide (%), GIP (human GIPR; [3]): 1% | Activity relative to GLP-1 (%), GIP (human GIPR; [4]): 2% | Activity relative to STD peptide (%), GIPR (human GIPR; Table 18): 0% | Activity relative to GLP-1 (%), GIPR (human GIPR; [5]): 0% | Relative % to native ligand, GIPR (human GIPR; [6]): 5% | Ratio vs. GLP-1R, GIPR (human GIPR; Table 25): 2 | Relative % to non-lipidated peptide, GIPR (human GIPR; Table 26): 167% | body weight loss (BWL), in words ([2]; Example 3, 20 nmol/kg QD or 30 nmol/kg Q2D s.c., 4 days): Superior body weight loss | body weight loss effect, in words ([2]; Example 5, 20 nmol/kg s.c. QD, 4 days): Superior body weight loss effects | Weight loss (%) ([2]; 10 nmol/kg QD): 15.7 ± 2.2% | Weight loss (%) ([2]; 20 nmol/kg QD): 20.1 ± 1.3% and 18.8 ± 0.9% and 19.3 ± 1.9% and 22.9 ± 1.5% | Weight loss (%) ([2]; 30 nmol/kg Q2D): 14.6 ± 1.8%
